Source: PMC6099706, “Anti-Mycobacterium tuberculosis Activity of Esters of Quinoxaline 1,4-Di-N-Oxide” (Molecules : A Journal of Synthetic Chemistry and Natural …, 2018)
Converted amounts (≈) assume the structure as drawn.

tested on: Mycobacterium tuberculosis strain H37Rv; assay: microplate Alamar blue assay (MABA); format: cell-based; settings: M. tuberculosis H37Rv; lowest concentration effecting 90% inhibition

**Q.** How did the “MABA MIC” value turn out when `[O-][n+]1onc2ccccc21` [Compound T-046] was run?
**A.** 58.5 µg/mL

**Q.** Which “MABA MIC” value does the source give for `CCOC(=O)c1ccc2c(c1)[n+]([O-])c(C(N)=O)c(C)[n+]2[O-]` [Compound T-045] here?
**A.** 29.83 µg/mL

**Q.** For `CCOC(=O)c1ccc2c(c1)[n+]([O-])c(C(=O)CC)c(C(F)(F)F)[n+]2[O-]` [Compound T-026], which “MABA MIC” value is on record?
**A.** 22.5 µg/mL

**Q.** With `COC(=O)c1cc2c(cc1OC)no[n+]2[O-]` [Compound T-036] as the molecule, how does the “MABA MIC” value read?
**A.** >128 µg/mL

same assay, conditions: Mycobacterium tuberculosis, H37RV, M. tuberculosis H37Rv; lowest concentration effecting 90% inhibition

**Q.** For `CCOC(=O)c1ccc2c(c1)[n+]([O-])c(C(=O)OCC)c(-c1ccccc1)[n+]2[O-]` [Compound T-043], which MIC is on record?
**A.** 0.54 µg/mL (≈ 1.41 µM)

**Q.** `CCOC(=O)c1ccc2c(c1)[n+]([O-])c(C(=O)c1ccccc1)c(C)[n+]2[O-]` [Compound T-004] was tested. Which MIC did it give?
**A.** 2.32 µg/mL (≈ 6.58 µM)

**Q.** Which MIC does the source give for `CCCOC(=O)c1ccc2c(c1)[n+]([O-])c(C(=O)C(C)C)c(C(F)(F)F)[n+]2[O-]` [Compound T-111] here?
**A.** 1.5 µg/mL (≈ 3.88 µM)

**Q.** With `COC(=O)c1ccc2c(c1)[n+]([O-])c(C(=O)C(C)C)c(C(F)(F)F)[n+]2[O-]` [Compound T-039] as the molecule, how does the MIC read?
**A.** 1.54 µg/mL (≈ 4.3 µM)

**Q.** For `CCCOC(=O)c1ccc2c(c1)[n+]([O-])c(C(=O)c1ccco1)c(C(F)(F)F)[n+]2[O-]` [Compound T-114], which MIC is on record?
**A.** 2.9 µg/mL (≈ 7.07 µM)

**Q.** `CCOC(=O)c1ccc2c(c1)[n+]([O-])c(C(N)=O)c(C)[n+]2[O-]` [Compound T-045] was tested. Which MIC did it give?
**A.** > 22 µg/mL

**Q.** With `Cc1c(C(=O)c2ccccc2)[n+]([O-])c2cc(C(=O)OC(C)C)ccc2[n+]1[O-]` [Compound T-098] as the molecule, how does the MIC read?
**A.** 4.59 µg/mL (≈ 12.5 µM)

**Q.** For `COC(=O)c1ccc2c(c1)[n+]([O-])c(C(C)=O)c(C)[n+]2[O-]` [Compound T-034], which MIC is on record?
**A.** 1.1 µg/mL (≈ 3.98 µM)

**Q.** For `CCCOC(=O)c1ccc2c(c1)[n+]([O-])c(C(=O)c1ccccc1)c(C(F)(F)F)[n+]2[O-]` [Compound T-115], which MIC is on record?
**A.** 1.5 µg/mL (≈ 3.57 µM)

**Q.** How did the MIC turn out when `CCOC(=O)c1ccc2c(c1)[n+]([O-])c(C(=O)CC)c(C(F)(F)F)[n+]2[O-]` [Compound T-026] was run?
**A.** > 22 µg/mL

**Q.** How did the MIC turn out when `COC(=O)c1cc2c(cc1OC)no[n+]2[O-]` [Compound T-036] was run?
**A.** > 100 µg/mL

**Q.** `CCCOC(=O)c1ccc2c(c1)[n+]([O-])c(C(N)=O)c(C)[n+]2[O-]` [Compound T-130] was tested. Which MIC did it give?
**A.** 2.9 µg/mL (≈ 9.5 µM)

**Q.** With `CCOC(=O)Cc1c(C(=O)OCC)[n+]([O-])c2cc(C(=O)OC(C)C)ccc2[n+]1[O-]` [Compound T-067] as the molecule, how does the MIC read?
**A.** 3.41 µg/mL (≈ 8.39 µM)

**Q.** For `CCCOC(=O)c1ccc2c(c1)[n+]([O-])c(C(C)=O)c(C(F)(F)F)[n+]2[O-]` [Compound T-113], which MIC is on record?
**A.** 3 µg/mL (≈ 8.37 µM)

**Q.** How did the MIC turn out when `NNC(=O)c1ccncc1` [INH, isoniazid, reference compound] was run?
**A.** 0.12 µg/mL (≈ 0.875 µM)

**Q.** How did the MIC turn out when `CCCOC(=O)c1ccc2c(c1)[n+]([O-])c(C(=O)C(C)(C)C)c(C)[n+]2[O-]` [Compound T-091] was run?
**A.** > 100 µg/mL

**Q.** With `CCOC(=O)c1c(C)[n+]([O-])c2ccc(C(=O)OC(C)C)cc2[n+]1[O-]` [Compound T-065] as the molecule, how does the MIC read?
**A.** 0.7 µg/mL (≈ 2.09 µM)

**Q.** `CCCOC(=O)c1ccc2no[n+]([O-])c2c1` [Compound T-074] was tested. Which MIC did it give?
**A.** 0.87 µg/mL (≈ 3.92 µM)

**Q.** With `CCCOC(=O)c1ccc2c(c1)[n+]([O-])c(C(=O)c1ccccc1)c(C)[n+]2[O-]` [Compound T-132] as the molecule, how does the MIC read?
**A.** 2.3 µg/mL (≈ 6.28 µM)

**Q.** For `CCCOC(=O)c1ccc2c(c1)[n+]([O-])c(C(C)=O)c(C)[n+]2[O-]` [Compound T-126], which MIC is on record?
**A.** 3 µg/mL (≈ 9.86 µM)

same assay, conditions: meaning not defined in the paper; printed beside the highest concentration

**Q.** Which “MABA percentage in parentheses after the MIC bound” value does the source give for `CCCOC(=O)c1ccc2c(c1)[n+]([O-])c(C(=O)C(C)(C)C)c(C)[n+]2[O-]` [Compound T-091] here?
**A.** 33%

tested on: nonreplicating persistent (NRP) M. tuberculosis strain; assay: microbe, parasite or virus in culture; format: cell-based, Mycobacterium tuberculosis; settings: Mycobacterium tuberculosis; nonreplicating persistent strain; read-out: LORA MIC

**Q.** With `CCOC(=O)c1ccc2c(c1)[n+]([O-])c(C(=O)OCC)c(-c1ccccc1)[n+]2[O-]` [Compound T-043] as the molecule, how does the MIC read?
**A.** 0.47 µg/mL (≈ 1.23 µM)

**Q.** Which MIC does the source give for `CCOC(=O)c1ccc2c(c1)[n+]([O-])c(C(=O)c1ccccc1)c(C)[n+]2[O-]` [Compound T-004] here?
**A.** 0.61 µg/mL (≈ 1.73 µM)

**Q.** `COC(=O)c1ccc2c(c1)[n+]([O-])c(C(=O)C(C)C)c(C(F)(F)F)[n+]2[O-]` [Compound T-039] was tested. Which MIC did it give?
**A.** 0.83 µg/mL (≈ 2.32 µM)

**Q.** How did the MIC turn out when `CCOC(=O)c1ccc2c(c1)[n+]([O-])c(C(N)=O)c(C)[n+]2[O-]` [Compound T-045] was run?
**A.** 100 µg/mL (≈ 344 µM)

**Q.** `Cc1c(C(=O)c2ccccc2)[n+]([O-])c2cc(C(=O)OC(C)C)ccc2[n+]1[O-]` [Compound T-098] was tested. Which MIC did it give?
**A.** 2.87 µg/mL (≈ 7.83 µM)

**Q.** `COC(=O)c1ccc2c(c1)[n+]([O-])c(C(C)=O)c(C)[n+]2[O-]` [Compound T-034] was tested. Which MIC did it give?
**A.** 0.7 µg/mL (≈ 2.53 µM)

**Q.** With `CCOC(=O)c1ccc2c(c1)[n+]([O-])c(C(=O)CC)c(C(F)(F)F)[n+]2[O-]` [Compound T-026] as the molecule, how does the MIC read?
**A.** 2.5 µg/mL (≈ 6.98 µM)

**Q.** Which MIC does the source give for `CCOC(=O)Cc1c(C(=O)OCC)[n+]([O-])c2cc(C(=O)OC(C)C)ccc2[n+]1[O-]` [Compound T-067] here?
**A.** 2.47 µg/mL (≈ 6.08 µM)

**Q.** Which MIC does the source give for `NNC(=O)c1ccncc1` [INH, isoniazid, reference compound] here?
**A.** > 128 µg/mL

**Q.** Which MIC does the source give for `CCOC(=O)c1c(C)[n+]([O-])c2ccc(C(=O)OC(C)C)cc2[n+]1[O-]` [Compound T-065] here?
**A.** 0.5 µg/mL (≈ 1.5 µM)

**Q.** Which MIC does the source give for `CCCOC(=O)c1ccc2no[n+]([O-])c2c1` [Compound T-074] here?
**A.** 4.62 µg/mL (≈ 20.8 µM)

same assay, conditions: nonreplicating persistent strain

**Q.** How did the “LORA MIC” value turn out when `[O-][n+]1onc2ccccc21` [Compound T-046] was run?
**A.** 46.97 µg/mL

target: M. tuberculosis gyrase (GyrA and Gyr B subunits) (Mycobacterium tuberculosis, UniProt P9WG45+P9WG47); assay: M. tuberculosis gyrase supercoiling assay; format: biochemical; settings: at 50 μM
Description: The activity of the enzyme was determined prior to the testing of the quinoxaline 1,4-di-N-oxide derivatives and 1 U was defined as the amount of enzyme required to just fully supercoil the substrate under test conditions. Compounds were tested at 50 μM. Final DMSO concentration in the assays was 1% (v/v).
1 U of M. tuberculosis gyrase (GyrA and Gyr B subunits) (final concentration in assay 50 nM) was incubated with 0.5 μg of relaxed pBR322 DNA in a 30 μL reaction at 37 °C for 30 min under the following conditions: 50 mM HEPES. KOH (pH 7.9), 6 mM magnesium acetate, 4 mM DTT, 1 mM ATP, 100 mM potassium glutamate, 2 mM spermidine and 0.05 mg/mL albumin.
Each reaction was stopped by the addition of 30 μL chloroform/iso-amyl alcohol (26:1) and 20 μL Stop Dye (40% sucrose, 100 mM Tris.HCl (pH 7.5), 10 mM EDTA, 0.5 μg/mL bromophenol blue), before being loaded on a 1.0% TAE (Tris.acetate […], EDTA […]) gel run at 80 V for 2 h.
Bands were visualized by ethidium staining for 10 min, destained for 10 min in water, analyzed by gel documentation equipment (Syngene, Cambridge, UK), and quantified using Syngene software (Genetools version 4.00 (1997–1998), Syngene, A division of Synoptics Corp, Cambridge, UK).
Raw gel data (fluorescent band volumes) collected from Syngene’s GeneTools gel analysis software were converted to a % of the 100% control (the supercoiled enzyme plus DMSO control DNA band). These were analyzed using SigmaPlot Version 13.0 (Systat Software Inc., London, UK; 2016).

Chain of M. tuberculosis gyrase (GyrA and Gyr B subunits) (P9WG45 whole entry): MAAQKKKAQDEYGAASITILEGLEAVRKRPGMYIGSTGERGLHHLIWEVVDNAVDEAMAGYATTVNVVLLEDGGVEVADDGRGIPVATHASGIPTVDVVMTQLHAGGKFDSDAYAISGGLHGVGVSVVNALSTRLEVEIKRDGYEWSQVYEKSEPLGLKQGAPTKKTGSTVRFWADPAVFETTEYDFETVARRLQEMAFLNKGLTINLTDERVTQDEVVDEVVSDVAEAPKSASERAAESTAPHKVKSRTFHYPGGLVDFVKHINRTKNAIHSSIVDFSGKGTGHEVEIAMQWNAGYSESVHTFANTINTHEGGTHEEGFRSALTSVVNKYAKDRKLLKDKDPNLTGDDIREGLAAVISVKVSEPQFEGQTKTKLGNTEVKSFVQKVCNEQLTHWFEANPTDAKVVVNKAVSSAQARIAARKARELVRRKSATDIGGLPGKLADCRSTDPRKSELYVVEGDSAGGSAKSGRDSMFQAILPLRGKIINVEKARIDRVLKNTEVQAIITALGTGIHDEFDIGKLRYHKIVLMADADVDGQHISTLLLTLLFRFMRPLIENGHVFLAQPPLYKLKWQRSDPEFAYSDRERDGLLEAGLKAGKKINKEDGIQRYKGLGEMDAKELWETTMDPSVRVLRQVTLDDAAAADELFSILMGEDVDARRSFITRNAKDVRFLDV
Chain of M. tuberculosis gyrase (GyrA and Gyr B subunits) (P9WG47 whole entry): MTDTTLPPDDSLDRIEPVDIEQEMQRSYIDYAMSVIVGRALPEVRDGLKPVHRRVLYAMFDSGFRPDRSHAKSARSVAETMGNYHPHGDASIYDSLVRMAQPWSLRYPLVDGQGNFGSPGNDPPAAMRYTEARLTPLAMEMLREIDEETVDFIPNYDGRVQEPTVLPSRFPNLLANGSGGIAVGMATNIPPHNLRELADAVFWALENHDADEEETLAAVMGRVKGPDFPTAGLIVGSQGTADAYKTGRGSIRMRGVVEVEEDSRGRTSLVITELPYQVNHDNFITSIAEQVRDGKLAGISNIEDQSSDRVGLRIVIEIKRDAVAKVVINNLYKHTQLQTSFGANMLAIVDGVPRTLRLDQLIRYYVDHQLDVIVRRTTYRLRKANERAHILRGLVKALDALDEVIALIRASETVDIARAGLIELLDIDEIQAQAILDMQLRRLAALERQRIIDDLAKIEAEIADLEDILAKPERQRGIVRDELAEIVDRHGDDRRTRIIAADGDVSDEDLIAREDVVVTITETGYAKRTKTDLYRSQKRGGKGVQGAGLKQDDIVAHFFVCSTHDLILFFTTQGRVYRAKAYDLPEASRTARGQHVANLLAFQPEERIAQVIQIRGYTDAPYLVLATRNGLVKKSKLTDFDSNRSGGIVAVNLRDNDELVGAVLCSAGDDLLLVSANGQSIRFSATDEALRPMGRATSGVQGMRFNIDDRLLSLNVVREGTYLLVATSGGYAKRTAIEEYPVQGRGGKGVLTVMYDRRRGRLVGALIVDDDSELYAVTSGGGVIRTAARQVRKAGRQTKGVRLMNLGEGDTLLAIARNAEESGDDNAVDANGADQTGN

**Q.** Which “inhibitory effect on M. tuberculosis gyrase supercoiling” value does the source give for `CCCOC(=O)c1ccc2c(c1)[n+]([O-])c(C(=O)c1ccco1)c(C(F)(F)F)[n+]2[O-]` [Compound T-114] here?
**A.** none of the compounds showed an inhibitory effect
